Kd data for 10 compounds are collected here from patent EP4667483A1, “HUMAN TRANSFERRIN RECEPTOR-BINDING PEPTIDE” (JCR Pharmaceuticals Co., Ltd., priority 2023, dated 2024).

For experiment [1], the target named is T1, human transferrin receptor (hTfR) (Homo sapiens, UniProt P02786). Put plainly: SPR measurement under pH 7.4 conditions (Biacore T200, CM3 chip, hTfR captured by His Tag antibody). The format is binding. The conditions noted are these: pH 7.4, single-cycle kinetics; read-out: hTfR SPR pH7.4 KD. The protocol:
(§1) Molecular interactions between the synthesized peptides and the transferrin receptor (hTfR) were evaluated by surface plasmon resonance (SPR) using the following method. The specific assay procedure is described below.
An CM3 sensor chip (Cytiva) was inserted into BiacoreT200 (Cytiva), then a priming operation was performed three times by using a running buffer: HBS-P+, pH7.4 (Cytiva), and an equilibrium state was created at a flow rate of […]. Ligand immobilization was performed at a flow rate of 10 µL/min. After mixing 50 µL each of 60 mM EDC solution (Cytiva) and 650 mM NHS solution (Cytiva), the mixture was reacted at a flow rate of 10 µL/min for 420 seconds. 150 µL of […] THE His Tag Antibody, mAb, Mouse (GenScript) was prepared by diluting with 10 mM acetic acid solution (pH 5.0), and reacted at a flow rate of 10 µL/ min for 420 seconds. Then, THE His Tag Antibody, mAb, Mouse (GenScript) was immobilized as a capture molecule on the CM3 sensor chip. After immobilization, capping was performed by reacting with 1.0 M ethanolamine solution (Cytiva) at a flow rate of 10 µL/min for 420 seconds. 300 nM hTfR was captured at a flow rate of 10 µL/min, a peptide solution prepared at 10 mM in DMSO was diluted with running buffer to achieve a final concentration of 10 µM, and peptide solutions at 250 nM, 125 nM, 62.5 nM, 25 nM, and 12.5 nM were prepared. . The peptide samples were reacted at a flow late of 30 µL/min for 120 seconds, followed by dissociation for 600 seconds. The kinetics of the peptide against hTfR was obtained by SPR measurement for the above samples.
(§2) The kinetic evaluation model was single-cycle kinetics, and curve fitting was performed using Biacore T200 Evaluation Software Version 3.0 (Cytiva). The binding of the peptide to hTfR was evaluated by performing curve fitting on the obtained sensorgram by the least squares method and obtaining the kon value, the koff value, and the KD value.

Experiment [2] has as its target T1, human transferrin receptor (hTfR). Briefly: SPR measurement under pH 6.0 conditions (Biacore T200, NTA chip, immobilized hTfR). The format is binding. Conditions: read-out: hTfR SPR pH6.0 KD. The protocol: as §1
An NTA sensor chip (Cytiva) was inserted in a Biacore T200 (Cytiva), a priming operation was performed 3 times with a running buffer: HBS-P+ pH 6.0 (Cytiva), and an equilibrium state was created at a flow rate of 30 µL/min. A ligand immobilization operation was carried out at a flow rate of 10 µL/min.
The surface of the NTA sensor chip was washed with 350 mM EDTA solution, nickel ions were loaded into the carbomethyldextran chains of the sensor chip with a 500 µM aqueous nickel chloride solution, and then washing was performed with 3 mM EDTA solution. After mixing 50 µL of each of 60 mM EDC solution (Cytiva) and 650 mM NHS solution (Cytiva), the mixture was reacted for 420 seconds at a flow rate of 10 µL/min. 150 µL of 0.2 µM hTfR solution was prepared by diluting with 10 mM acetic acid solution (pH 5.0), and reacted for 420 seconds at a flow rate of 10 µL/min to immobilize hTfR on the NTA sensor chip. For the human transferrin receptor (hTfR), the recombinant hTfR described in Example 2 of WO2018/124121 was used. After immobilization, capping was performed by reacting with 1.0 M ethanolamine aqueous solution (Cytiva) at a flow rate of 10 µL/min for 420 seconds. Peptide lysate prepared in DMSO to 10 mM was diluted with the running buffer to a final concentration of 10 µM peptide lysate, and then peptide solutions of 250 nM, 125 nM, 62.5 nM, 25 nM, and 12.5 nM were prepared. The kinetics of the peptide against hTfR was obtained by SPR measurement using the above samples.
as §2
A general note: In SPR one partner is held on a chip, and binding of the other changes the refractive index at the surface.

[3] abbreviates: SPR, pH 6.0, peptide with the linker named in the table.

Numbered stars: 1 amine (or outer) side, 2 acyl side, 3 side chain; on linkers, the order of the positions; unused ones are H or OH. Bridge positions count the residues as written; N and C are the ends. Square brackets hold non-standard residues; d marks the D form. Peptide text beside a SMILES is read from it. * marks the point of attachment. Trp(1-CH2COOH) = N[C@@H](Cc1cn(CC(=O)O)c2ccccc12)C(=O)O; NMePhe(3-Cl) = CN[C@@H](Cc1cccc(Cl)c1)C(=O)O; NMeW = CN[C@@H](Cc1c[nH]c2ccccc12)C(=O)O; X6 = Cc1cc(C[C@H](N[*:1])C(=O)[*:2])ccn1; NMeY = CN[C@@H](Cc1ccc(O)cc1)C(=O)O; Nva(3-Et) = CCC(CC)[C@H](N)C(=O)O; PEG4 = NCCOCCOCCOCCOCCC(=O)O; Carboxymethyl = O=C(O)C*

T1 sequence (P02786 whole entry): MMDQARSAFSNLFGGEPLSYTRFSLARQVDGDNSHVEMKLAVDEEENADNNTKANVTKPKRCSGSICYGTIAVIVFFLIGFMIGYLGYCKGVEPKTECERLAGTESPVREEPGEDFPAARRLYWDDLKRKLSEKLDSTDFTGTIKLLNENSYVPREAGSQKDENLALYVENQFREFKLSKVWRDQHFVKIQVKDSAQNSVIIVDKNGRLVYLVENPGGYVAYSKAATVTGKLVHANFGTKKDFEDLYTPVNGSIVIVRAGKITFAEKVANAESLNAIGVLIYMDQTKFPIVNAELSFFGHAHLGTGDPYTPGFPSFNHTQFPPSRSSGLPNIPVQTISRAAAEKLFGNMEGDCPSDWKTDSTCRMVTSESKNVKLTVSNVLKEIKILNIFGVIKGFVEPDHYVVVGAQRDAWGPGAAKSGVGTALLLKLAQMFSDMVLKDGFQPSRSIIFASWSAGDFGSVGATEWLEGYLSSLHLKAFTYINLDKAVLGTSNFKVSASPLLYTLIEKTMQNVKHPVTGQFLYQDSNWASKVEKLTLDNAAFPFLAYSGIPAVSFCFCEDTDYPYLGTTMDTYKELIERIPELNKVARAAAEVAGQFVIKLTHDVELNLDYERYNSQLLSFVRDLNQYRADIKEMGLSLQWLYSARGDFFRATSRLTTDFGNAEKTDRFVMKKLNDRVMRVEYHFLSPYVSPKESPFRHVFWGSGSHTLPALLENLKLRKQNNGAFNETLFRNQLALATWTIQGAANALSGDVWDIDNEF

As usually defined, the Kd is the constant that tells how readily two partners part at equilibrium. As to `CC[C@H](C)[C@@H]1NC(=O)[C@H](Cc2ccc(OC)cc2)NC(=O)[C@H](Cc2ccc(N)nc2)NC(=O)[C@H](CC(N)=O)NC(=O)[C@H](Cc2c[nH]c3ncccc23)NC(=O)[C@H](C(C)C)NC(=O)[C@H](Cc2cccc(Cl)c2)N(C)C(=O)[C@H](C(C)C)NC(=O)[C@H](C)NC(=O)CSC[C@@H](C(=O)NCCOCCOCCOCCOCCC(N)=O)NC(=O)[C@H](Cc2ccc(O)cc2)N(C)C(=O)[C@H](Cc2ccncc2)NC(=O)[C@H](CCCNC(=N)N)NC(=O)[C@H](CCCNC(=N)N)NC(=O)[C@H]([C@@H](C)CC)NC1=O` [compound 1], the Kd in experiment [1] was found to be 0.00156 µM; in experiment [2] (pH 6.0, single-cycle kinetics) it was 0.0182 µM.
Regarding `CC[C@H](C)[C@@H]1NC(=O)[C@H](Cc2ccc(O)cc2)NC(=O)[C@H](Cc2ccc(N)nc2)NC(=O)[C@H](CC(N)=O)NC(=O)[C@H](Cc2c[nH]c3ccccc23)NC(=O)[C@H](C(C)C)NC(=O)[C@H](Cc2ccccc2)N(C)C(=O)[C@H](C(C)C)NC(=O)[C@H](C)NC(=O)CSC[C@@H](C(=O)NCCOCCOCCOCCOCCC(N)=O)NC(=O)[C@H](Cc2ccc(O)cc2)N(C)C(=O)[C@H](Cc2ccc(O)cc2)NC(=O)[C@H](CCCNC(=N)N)NC(=O)[C@H](CCCCN)NC(=O)[C@H]([C@@H](C)CC)NC1=O` [compound 123], in experiment [2] (setting [3]), the Kd is 0.0174 µM.
On to `CCC(CC)[C@@H]1NC(=O)[C@H](Cc2ccc(O)cc2)NC(=O)[C@H](Cc2ccc(O)cc2)NC(=O)[C@H](CC(N)=O)NC(=O)[C@H](Cc2c[nH]c3ccccc23)N(C)C(=O)[C@H](C(C)C)NC(=O)[C@H](Cc2cccc(Cl)c2)N(C)C(=O)[C@H](C(C)C)NC(=O)[C@H](C)NC(=O)CSC[C@@H](C(=O)NCCOCCOCCOCCOCCC(N)=O)NC(=O)[C@H](Cc2ccc(O)cc2)N(C)C(=O)[C@H](Cc2ccc(O)cc2)NC(=O)[C@H](CCCNC(=N)N)NC(=O)[C@H](CCCCN)NC(=O)[C@H](CO)NC1=O` [compound 132] ({CH2CO}-AV[NMePhe(3-Cl)]V[NMeW]NYY[Nva(3-Et)]SKRY[NMeY]C[PEG4]-NH2; thioether N-15), for which the Kd in experiment [2] (setting [3]) turned out to be 0.0132 µM.
For the compound `CC[C@H](C)[C@@H]1NC(=O)[C@H](Cc2ccc(O)cc2)NC(=O)[C@H](Cc2ccc(O)cc2)NC(=O)[C@H](CC(N)=O)NC(=O)[C@H](Cc2c[nH]c3ccccc23)N(C)C(=O)[C@H](C(C)C)NC(=O)[C@H](Cc2cccnc2)N(C)C(=O)[C@H](C(C)C)NC(=O)[C@H](C)NC(=O)CSC[C@@H](C(=O)NCCOCCOCCOCCOCCC(N)=O)NC(=O)[C@H](Cc2ccc(O)cc2)N(C)C(=O)[C@H](Cc2ccc(O)cc2)NC(=O)[C@H](CCCNC(=N)N)NC(=O)[C@H](CCCCN)NC(=O)[C@H]([C@@H](C)CC)NC1=O` [compound 135], the Kd in experiment [2] (setting [3]) was 0.0153 µM.
With `CCC(CC)[C@@H]1NC(=O)[C@H](Cc2ccc(OCC(=O)O)cc2)NC(=O)[C@H](Cc2ccc(NCC(=O)O)nc2)NC(=O)[C@H](CC(N)=O)NC(=O)[C@H](Cc2cn(CC(=O)O)c3ccccc23)NC(=O)[C@H](C(C)C)NC(=O)[C@H](Cc2cccc(Cl)c2)N(C)C(=O)[C@H](C(C)C)NC(=O)[C@H](C)NC(=O)CSC[C@@H](C(=O)NCCOCCOCCOCCOCCC(N)=O)NC(=O)[C@H](Cc2ccc(O)cc2)N(C)C(=O)[C@H](Cc2cccc(C(=O)O)c2)NC(=O)[C@H](CCCNC(=N)N)NC(=O)[C@H](CCC(N)=O)NC(=O)[C@H]([C@@H](C)CC)NC1=O` [compound 150], in experiment [2] (SPR, pH 6.0, Table 2-1-2), the Kd amounted to 0.0589 µM.
As for `CCC(CC)[C@@H]1NC(=O)[C@H](Cc2ccc(NCC(=O)O)nc2)NC(=O)[C@H](Cc2ccc(O)cc2)NC(=O)[C@H](CC(N)=O)NC(=O)[C@H](Cc2cn(CC(=O)O)c3ccccc23)NC(=O)[C@H](C(C)C)NC(=O)[C@H](Cc2cccc(Cl)c2)N(C)C(=O)[C@H](C(C)C)NC(=O)[C@H](C)NC(=O)CSC[C@@H](C(=O)NCCOCCOCCOCCOCCC(N)=O)NC(=O)[C@H](Cc2ccc(O)cc2)N(C)C(=O)[C@H](Cc2cccc(C(=O)O)c2)NC(=O)[C@H](CCCNC(=N)N)NC(=O)[C@H](CCC(N)=O)NC(=O)[C@H]([C@@H](C)CC)NC1=O` [compound 151], the Kd in experiment [2] (SPR, pH 6.0, Table 2-1-2) was determined as 0.0482 µM.
Still for that read-out and setting: then `CCC(CC)[C@@H]1NC(=O)[C@H](Cc2ccc(OCC(=O)O)cc2)NC(=O)[C@H](Cc2ccc(O)cc2)NC(=O)[C@H](CC(N)=O)NC(=O)[C@H](Cc2cn(CC(=O)O)c3ccccc23)NC(=O)[C@H](C(C)C)NC(=O)[C@H](Cc2cccc(Cl)c2)N(C)C(=O)[C@H](C(C)C)NC(=O)[C@H](C)NC(=O)CSC[C@@H](C(=O)NCCOCCOCCOCCOCCC(N)=O)NC(=O)[C@H](Cc2ccc(O)cc2)N(C)C(=O)[C@H](Cc2ccnc(C)c2)NC(=O)[C@H](CCCNC(=N)N)NC(=O)[C@H](CCC(N)=O)NC(=O)[C@H]([C@@H](C)CC)NC1=O` [compound 152] ({CH2CO}-AV[NMePhe(3-Cl)]V[Trp(1-CH2COOH)]NYY(Carboxymethyl)[Nva(3-Et)]IQR[X6][NMeY]C[PEG4]-NH2; thioether N-15), with 0.116 µM.
On to `CC[C@H](C)[C@@H]1NC(=O)[C@H](Cc2ccc(OC)cc2)NC(=O)[C@H](Cc2ccc(O)cc2)NC(=O)[C@H](CC(N)=O)NC(=O)[C@H](Cc2c[nH]c3ccccc23)N(C)C(=O)[C@H](C(C)C)NC(=O)[C@H](Cc2cccc(Cl)c2)N(C)C(=O)[C@H](C(C)C)NC(=O)[C@H](C)NC(=O)CSC[C@@H](C(=O)NCCOCCOCCOCCOCCC(N)=O)NC(=O)[C@H](Cc2ccc(O)cc2)N(C)C(=O)[C@H](Cc2ccccc2)NC(=O)[C@H](CCCNC(=N)N)NC(=O)[C@H](CCC(=O)NCCCN)NC(=O)[C@H]([C@@H](C)CC)NC1=O` [compound 171], for which, in experiment [2] (pH 6.0, single-cycle kinetics), the Kd came out at 0.000678 µM.
Consider `CC[C@H](C)[C@@H]1NC(=O)[C@H](Cc2ccc(OC)cc2)NC(=O)[C@H](CCCNC(=N)N)NC(=O)[C@H](CC(N)=O)NC(=O)[C@H](Cc2c[nH]c3ccccc23)N(C)C(=O)[C@H](C(C)C)NC(=O)[C@H](Cc2cccc(Cl)c2)N(C)C(=O)[C@H](C(C)C)NC(=O)[C@H](C)NC(=O)CSC[C@@H](C(=O)NCCOCCOCCOCCOCCC(N)=O)NC(=O)[C@H](Cc2ccc(O)cc2)N(C)C(=O)[C@H](Cc2ccccc2)NC(=O)[C@H](CCCNC(=N)N)NC(=O)[C@H](CCCCN)NC(=O)[C@H]([C@@H](C)CC)NC1=O` [compound 173] ({CH2CO}-AV[NMePhe(3-Cl)]V[NMeW]NRY(Me)IIKRF[NMeY]C[PEG4]-NH2; thioether N-15), for which the Kd in experiment [2] (pH 6.0, single-cycle kinetics) came out at 0.0133 µM.
Regarding `CC[C@H](C)[C@@H]1NC(=O)[C@H](Cc2ccc(O)cc2)NC(=O)[C@H](Cc2ccc(N)nc2)NC(=O)[C@H](CC(N)=O)NC(=O)[C@H](Cc2c[nH]c3ccccc23)N(C)C(=O)[C@H](C(C)C)NC(=O)[C@H](Cc2ccccc2)N(C)C(=O)[C@H](C(C)C)NC(=O)[C@H](C)NC(=O)CSC[C@@H](C(=O)NCC(=O)N[C@H](CCC(=O)O)C(=O)N[C@H](CCC(=O)O)C(=O)N[C@H](CCC(=O)O)C(=O)N[C@H](CO)C(=O)N[C@H](CO)C(=O)N[C@@H](CCCCN=[N+]=[N-])C(N)=O)NC(=O)[C@H](Cc2ccc(C(=O)O)cc2)N(C)C(=O)[C@H](Cc2ccc(O)cc2)NC(=O)[C@H](CCCNC(=N)N)NC(=O)[C@H](CCCCN)NC(=O)[C@H]([C@@H](C)CC)NC1=O` [compound 186], in experiment [2] (SPR, pH 6.0, Table 1-3-2-2), the Kd came to 0.145 µM.
